Measurements taken from patent US9833497B2, “Human originated EGF domain proteins and use of the same” (CHENGDU SOURCEBIO LIMITED-LIABILITY COMPANY, priority 2013, dated 2017).

Experiments:
Type in all cases: cell-based
E. coli DH5α = assay: Antibacterial activity: MIC and growth curve against E. coli DH5α in 96-well plate; conditions: minimal inhibitory concentration against E. coli DH5α; 96-well plate, 5×10^5 CFU/mL, 37° C., judged after 8 h
How it was run: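 MIC taken as lowest protein level with no bacterial growth, tracked by A600 every 30 min during 37 °C, 175 rpm culture. Two-fold protein series 50-12.5 μg/mL final, triplicate wells, against 5×10^5 CFU/mL of LB-washed mid-log cells.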

E. coli BL21 = assay: MIC against Gram-negative bacteria: E. coli BL21
How it was run: (§1)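 MIC, the lowest recombinant protein concentration giving no bacterial growth, found by two-fold serial dilution of human EGF-domain proteins in triplicate. Inoculum 5×10^5 CFU/mL in LB from cultures at McFarland 0.5; plates incubated at 37° C, 175 rpm shaking.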

Pseudomonas aeruginosa = assay: MIC against Gram-negative bacteria: Pseudomonas aeruginosa
How it was run: as §1

Klebsiella pneumonia = assay: MIC against Gram-negative bacteria: Klebsiella pneumonia
How it was run: as §1

Enterobacter cloacae = assay: MIC against Gram-negative bacteria: Enterobacter cloacae
How it was run: as §1

Aeromonas hydrophila = assay: MIC against Gram-negative bacteria: Aeromonas hydrophila
How it was run: as §1

Citrobacter diversus = assay: MIC against Gram-negative bacteria: Citrobacter diversus
How it was run: as §1

Moraxella catarrhalis = assay: MIC against Gram-negative bacteria: Moraxella catarrhalis
How it was run: as §1

Proteus mirabilis = assay: MIC against Gram-negative bacteria: Proteus mirabilis
How it was run: as §1

Proteus vulgaris = assay: MIC against Gram-negative bacteria: Proteus vulgaris
How it was run: as §1

Serratia marcescens = assay: MIC against Gram-negative bacteria: Serratia marcescens
How it was run: as §1

[1] = E. coli BL21, 10 h cultivation at 37° C., 5×10^5 CFU/mL
[2] = P. aeruginosa, 10 h cultivation at 37° C., 5×10^5 CFU/mL
[3] = K. pneumonia, 10 h cultivation at 37° C., 5×10^5 CFU/mL
[4] = E. cloacae, 10 h cultivation at 37° C., 5×10^5 CFU/mL
[5] = A. hydrophila, 10 h cultivation at 37° C., 5×10^5 CFU/mL
[6] = C. diversus, 10 h cultivation at 37° C., 5×10^5 CFU/mL
[7] = M. catarrhalis, 10 h cultivation at 37° C., 5×10^5 CFU/mL
[8] = P. mirabilis, 10 h cultivation at 37° C., 5×10^5 CFU/mL
[9] = P. vulgaris, 10 h cultivation at 37° C., 5×10^5 CFU/mL
[10] = S. marcescens, 10 h cultivation at 37° C., 5×10^5 CFU/mL
[11] = 10 h cultivation at 37° C., 5×10^5 CFU/mL, two-fold serial dilution
[12] = 96-well plate, 5×10^5 CFU/mL, 37° C., 10 h

PRT973 (DLPDCSPSSCFNGGTCVDGVNSFSCLCRPGYTGAHCQ; listed as Homo sapiens)
12.5 µg/mL: MIC (E. coli DH5α) | MIC (E. coli BL21; E. coli BL21, 10 h cultivation at 37° C.) | MIC (Pseudomonas aeruginosa; P. aeruginosa, 10 h cultivation at 37° C.) | MIC (Enterobacter cloacae; E. cloacae, 10 h cultivation at 37° C.) | MIC (Moraxella catarrhalis; M. catarrhalis, 10 h cultivation at 37° C.) | MIC (Serratia marcescens; S. marcescens, 10 h cultivation at 37° C.)
25 µg/mL: MIC (Aeromonas hydrophila; A. hydrophila, 10 h cultivation at 37° C.) | MIC (Proteus vulgaris; P. vulgaris, 10 h cultivation at 37° C.)
50 µg/mL: MIC (Klebsiella pneumonia; K. pneumonia, 10 h cultivation at 37° C.) | MIC (Citrobacter diversus; C. diversus, 10 h cultivation at 37° C.) | MIC (Proteus mirabilis; P. mirabilis, 10 h cultivation at 37° C.)

PRT239 (SAGPCTPNPCHNGGTCEISEAYRGDTFIGYVCKCPRGFNGIHCQ; listed as Homo sapiens)
12.5 µg/mL: MIC (μg/mL) E. coli BL21 (E. coli BL21; [1]) | MIC (μg/mL) P. aeruginosa (Pseudomonas aeruginosa; [2]) | MIC (μg/mL) K. pneumonia (Klebsiella pneumonia; [3]) | MIC (μg/mL) E. cloacae (Enterobacter cloacae; [4]) | MIC (μg/mL) A. hydrophila (Aeromonas hydrophila; [5]) | MIC (μg/mL) P. mirabilis (Proteus mirabilis; [8]) | MIC (μg/mL) P. vulgaris (Proteus vulgaris; [9]) | MIC (μg/mL) S. marcescens (Serratia marcescens; [10])
100 µg/mL: MIC (μg/mL) C. diversus (Citrobacter diversus; [6])
25 µg/mL: MIC (E. coli DH5α) | MIC (μg/mL) M. catarrhalis (Moraxella catarrhalis; [7])

PRT427 (DVNECETGVHRCGEGQVCHNLPGSYRCDCKAGFQRDAFGRGCI; listed as Homo sapiens)
12.5 µg/mL: MIC (E. coli BL21; [1]) | MIC (Aeromonas hydrophila; [5]) | MIC (Proteus vulgaris; [9])
25 µg/mL: MIC (E. coli DH5α) | MIC (Pseudomonas aeruginosa; [2]) | MIC (Enterobacter cloacae; [4]) | MIC (Citrobacter diversus; [6]) | MIC (Proteus mirabilis; [8]) | MIC (Serratia marcescens; [10])
50 µg/mL: MIC (Klebsiella pneumonia; [3]) | MIC (Moraxella catarrhalis; [7])

PRT1070 (RPGTCNLQCFNGGSCFLNARRQPKCRCQPRYTGDKCE; listed as Homo sapiens)
12.5 µg/mL: MIC E. coli BL21 (E. coli BL21; [11]) | MIC K. pneumonia (Klebsiella pneumonia; [11]) | MIC A. hydrophila (Aeromonas hydrophila; [11]) | MIC C. diversus (Citrobacter diversus; [11]) | MIC M. catarrhalis (Moraxella catarrhalis; [11]) | MIC P. mirabilis (Proteus mirabilis; [11]) | MIC P. vulgaris (Proteus vulgaris; [11]) | MIC S. marcescens (Serratia marcescens; [11])
25 µg/mL: MIC (E. coli DH5α) | MIC P. aeruginosa (Pseudomonas aeruginosa; [11]) | MIC E. cloacae (Enterobacter cloacae; [11])

PRT1362 (GKPTCPHACHTQGRCEEGQCVCDEGFAGVDCS; listed as Homo sapiens)
25 µg/mL: MIC against E. coli BL21 (E. coli BL21; E. coli BL21, 5×10^5 CFU/mL, 10 h cultivation at 37° C.) | MIC against K. pneumonia (Klebsiella pneumonia; Klebsiella pneumonia, 5×10^5 CFU/mL, 10 h cultivation at 37° C.)
50 µg/mL: MIC against P. aeruginosa (Pseudomonas aeruginosa; Pseudomonas aeruginosa, 5×10^5 CFU/mL, 10 h cultivation at 37° C.) | MIC against A. hydrophila (Aeromonas hydrophila; Aeromonas hydrophila, 5×10^5 CFU/mL, 10 h cultivation at 37° C.) | MIC against M. catarrhalis (Moraxella catarrhalis; Moraxella catarrhalis, 5×10^5 CFU/mL, 10 h cultivation at 37° C.)
12.5 µg/mL: MIC (E. coli DH5α) | MIC against E. cloacae (Enterobacter cloacae; Enterobacter cloacae, 5×10^5 CFU/mL, 10 h cultivation at 37° C.) | MIC against C. diversus (Citrobacter diversus; Citrobacter diversus, 5×10^5 CFU/mL, 10 h cultivation at 37° C.) | MIC against P. mirabilis (Proteus mirabilis; Proteus mirabilis, 5×10^5 CFU/mL, 10 h cultivation at 37° C.) | MIC against P. vulgaris (Proteus vulgaris; Proteus vulgaris, 5×10^5 CFU/mL, 10 h cultivation at 37° C.) | MIC against S. marcescens (Serratia marcescens; Serratia marcescens, 5×10^5 CFU/mL, 10 h cultivation at 37° C.)

PRT455 (DVNECSQENGGCLQICHNKPGSFHCSCHSGFELSSDGRTCQ; listed as Homo sapiens)
100 µg/mL: MIC against P. vulgaris (Proteus vulgaris; [12])
12.5 µg/mL: MIC against E. coli BL21 (E. coli BL21; [12]) | MIC against K. pneumonia (Klebsiella pneumonia; [12]) | MIC against A. hydrophila (Aeromonas hydrophila; [12]) | MIC against M. catarrhalis (Moraxella catarrhalis; [12])
50 µg/mL: MIC (E. coli DH5α) | MIC against P. aeruginosa (Pseudomonas aeruginosa; [12]) | MIC against E. cloacae (Enterobacter cloacae; [12]) | MIC against C. diversus (Citrobacter diversus; [12]) | MIC against P. mirabilis (Proteus mirabilis; [12]) | MIC against S. marcescens (Serratia marcescens; [12])
